Source: PMC5365648, “Pharmacokinetics of the Novel Echinocandin CD101 in Multiple Animal Species” (Antimicrobial Agents and Chemotherapy, 2017)
Starred links: 1 amine or outer side, 2 acyl side, 3 side chain; linkers in the order of their positions; H or OH if unused. Positions of bridges follow the written chain, without caps; N, C: chain ends. Non-standard residues stand in square brackets, D forms with d. Residues, ends and D or L forms follow the SMILES beside them. *: point of attachment. pTerphenylCO(4''-OnC5H11) = CCCCCOc1ccc(-c2ccc(-c3ccc(C(=O)*)cc3)cc2)cc1; Orn(4R-OH,5R-OH) = O=C([C@H](C[C@@H](O)[C@@H](O)N[*:3])N[*:1])[*:2]; hTyr(3S-OH,4S-OH) = N[C@H](C(=O)O)[C@H](O)[C@@H](O)c1ccc(O)cc1; Pro(3S-OH,4S-Me) = C[C@H]1CN[C@H](C(=O)O)[C@H]1O; Hyp = O=C(O)[C@@H]1C[C@@H](O)CN1

Legend:
[1] = ref [13]; cited from earlier work
Text: In the case of brain concentrations, there was little difference across all the collection intervals. Given the relatively low concentrations and small differences across times, measured concentrations may reflect contamination from residual whole blood during the collec ...

[2] = Chimpanzee pharmacokinetics, i.v. infusion; format: in vivo, chimpanzees; settings: in vivo, iv, female chimpanzees, single 1 mg/kg i.v. infusion (1 h), plasma, LC-MS/MS, noncompartmental, n = 2
Description: A single 1-mg/kg dose of CD101 or anidulafungin was administered by i.v. infusion (1 h) to female chimpanzees (n = 2/group), and blood samples (via peripheral vein) were drawn for plasma processing at the midpoint of infusion, at the end of infusion, at 2, 4, 8, 12, 24, 48, and 72 h postdose, and on days 5, 7, and 10 postdose.
(§1) For each of the pharmacokinetic studies, whole-blood samples (K3EDTA as anticoagulant) were collected and centrifuged within 30 min of collection. The resulting plasma was harvested and stored at −20°C until analysis. Tissue samples were homogenized by a bead-based homogenizer following the addition of deionized water to excised tissue in a 2:1 (vol/wt) ratio and stored at −20°C until analysis. Prior to analysis, plasma or homogenized tissue samples were quenched with acetonitrile (3:1, acetonitrile-plasma or tissue ratio) containing an appropriate internal standard (isotopically labeled d9-CD101 [mouse and rat] or a structural analog [dog, monkey, and chimpanzee]). Plasma and tissue homogenate concentrations (quantified against calibration standards processed the same way) were determined by reverse-phase, gradient liquid chromatography with tandem mass spectrometric detection (LC-MS/MS) using an AB-SCIEX API 3200Q/4000 mass spectrometry system. Calibration standard ranges were the following: 0.400 (lower limit of quantitation, [LLOQ]) to 200 μg/ml (CD101, mouse), 0.040 (LLOQ) to 10 μg/ml (anidulafungin, mouse), 0.002 (LLOQ) to 10 μg/ml (CD101, rat), 0.005 (LLOQ) to 10 μg/ml (anidulafungin, rat), 0.050 (LLOQ) to 10 μg/ml (CD101, dog), 0.020 (LLOQ) to 10 μg/ml (anidulafungin, dog), 0.010 (LLOQ) to 10 μg/ml (CD101, monkey), 0.001 (LLOQ) to 10 μg/ml (anidulafungin, monkey), 0.015 (LLOQ) to 10 μg/ml (CD101, chimpanzee), and 0.015 (LLOQ) to 10 μg/ml (anidulafungin, chimpanzee). When necessary, dilutions with blank matrix were made for samples that quantified above the upper limit of quantitation. The methods used in the analysis were qualified as fit for purpose: calibration standards were matrix matched with the exception that human plasma calibration standards were used to analyze chimpanzee plasma samples due to the rarity of blank chimpanzee plasma, and, for each analytical batch, triplicate calibration standards were included at the beginning, approximately in the middle, and at the end of the batch. Following analysis, quantitation was carried out by a calibration curve comprising the analyte/internal standard area ratio versus concentration. Analytical batch acceptance followed the general guidance that triplicate standards/quality controls be within ±20% for accuracy (percentage of nominal concentration) and ≤20% for precision (percent coefficient of variation).
(§2) Pharmacokinetic parameters were calculated by noncompartmental analysis using Phoenix WinNonlin (version 6.3; Pharsight, Mountain View, CA) from either individual or mean (mouse) concentration-time profiles. An unpaired t test was used to compare mean exposures from male and female rats.

[3] = for CD101 the effective half-life (covers the majority of the AUC), ref [10]; cited from earlier work
Description: The half-life of CD101 in human is about 3-fold longer (about 90 h) than that of anidulafungin (about 30 h) ([10]). It should be noted that 90 h is the effective half-life of CD101 (i.e., the half-life that covers the majority of the AUC), with a longer, later-phase half-life evident at lower concentration ...

[4] = radiolabeled drug, bile duct-cannulated rats, ref [14], cited from earlier work
Description: In that study, which utilized radiolabeled anidulafungin in bile duct-cannulated rats, 94.8% of the radioactive dose was accounted for through 168 h (or 7 days). […] In a similar study of CD101 conducted with nonradiolabeled material, no biotransformati ...

[5] = Mouse pharmacokinetics, i.v. bolus; settings: in vivo, iv, male ICR (CD-1) mice, single 1 mg/kg slow i.v. bolus, plasma, LC-MS/MS, noncompartmental from mean profile, n = 3/time point
Description: A single 1-mg/kg dose of CD101 or anidulafungin was administered by slow i.v. bolus (∼2 min) to male ICR (CD-1) mice (n = 3/group/time point). Blood samples (via cardiac puncture) were collected for plasma processing predose and at 0.083 (5 min), 0.5, 1, 4, 8, 24, 48, and 72 h postdose. PK profiles were generated based on mean results from the three animals sampled at each time point. In another study, a single 1-, 4-, or 16-mg/kg dose of CD101 was administered by i.p. injection to female ICR (CD-1) mice (n = 3/time point/dose), and blood samples (via cardiac puncture) were drawn for plasma processing at 1, 3, 6, 12, 24, 48, 72, and 96 h postdose.
as §1, §2

[6] = Cynomolgus monkey pharmacokinetics, i.v. bolus; set-up: species or system cynomolgus monkeys; settings: in vivo, iv, cynomolgus monkeys, single 2.8 mg/kg slow i.v. bolus, plasma, LC-MS/MS, n = 3
Description: A single dose of 2.13 mg/kg CD101 or 2.8 mg/kg anidulafungin was administered by slow i.v. bolus (∼10 min) to cynomolgus monkeys (n = 3/group), and blood samples (via peripheral vein) were drawn for plasma processing at 0.167, 0.5, 1, 3, 8, 12, 24, 48, and 72 h postdose.
as §1, §2

Compound	Tissue/plasma AUC ratio, kidney [1]	Tissue/plasma AUC ratio, liver [1]	Tissue/plasma AUC ratio, lung [1]	half-life [2] [min]	clearance ([2]; read-out: CL (clearance)) [mL/min/kg]	half-life in human [3]	radioactive dose accounted for ([4]; through 168 h (7 days)) [%]	drug-derived radioactivity recovered in bile, % of dose ([4]; through 168 h) [%]	drug-derived radioactivity recovered in carcass, % of dose ([4]; through 168 h) [%]	drug-derived radioactivity recovered in feces, % of dose ([4]; through 168 h) [%]	radioactivity recovered in urine ([4]; through 168 h) [%]	half-life [5] [min]	clearance ([5]; read-out: CL (clearance)) [mL/min/kg]	half-life [6] [min]
micafungin	3.2	7.8	3.6											
caspofungin	5.5	10.2	1.2											
CCCCCOc1ccc(-c2ccc(-c3ccc(C(=O)N[C@H]4C[C@@H](O)[C@@H](O)NC(=O)[C@@H]5[C@@H](O)[C@@H](C)CN5C(=O)[C@H]([C@@H](C)O)NC(=O)[C@H]([C@H](O)[C@@H](O)c5ccc(O)cc5)NC(=O)[C@@H]5C[C@@H](O)CN5C(=O)[C@H]([C@@H](C)O)NC4=O)cc3)cc2)cc1 [anidulafungin] ({pTerphenylCO(4''-OnC5H11)}-[Orn(4R-OH,5R-OH)]T[Hyp][hTyr(3S-OH,4S-OH)]T[Pro(3S-OH,4S-Me)]; lactam 1-C)	10.7	12.4	10.4	1800	0.42	about 30 h	94.8	33.9	40.4	17.1	2.94	1140	0.21	480
